Laboratory results from patent publication US4638070A, “Heterocyclic amino-alcohol derivatives” (Continental Pharma, priority 1980, dated 1987).

What was measured:
[1] = test system: guinea-pig ileum (acetylcholine contractions); assay: Antispasmodic activity in vitro, contractions caused by acetylcholine; conditions: added 15 minutes before spasm-producing agent
Experimental: (§1) (4) The antispasmodic activity was measured in vitro, on guinea-pig ileum, the contractions of which were caused by histammne (Hist.), acetylcholine (Achol) or barium chloride (BaCl2). The tested products were added to perfusion bath 15 minutes before the spasm-producing agents.
(§2) The dose is given in micograms (μg) per ml of bath causing complete spasm inhibition.

[2] = test system: guinea-pig ileum (histamine contractions); assay: Antispasmodic activity in vitro, contractions caused by histamine; conditions: added 15 minutes before spasm-producing agent
Experimental: as §1, §2

[3] = Acute toxicity, oral, LD50 (Litchfield and Wilcoxon); conditions: mouse, in vivo, fasted male mice, confidence limits p=95% in brackets
Experimental: (1) The acute toxicity was determined on fasted male mice. The tested substances were orally administered and LD50 values (lethal dose for 50% of animals) were calculated according to the method of Litchfield and Wilcoxon (J. Pharmacol. exp. Ther. 96, 94-113, 1949). These LD50 values are given in mg/kg and also, when possible, with their confidence limits for p=95%.

femoral artery = assay: Vasodilator activity, femoral artery (technique of perfused paw); assay type: in vivo; set-up: key: O: no action; +: slight activity; ++: effect equal to half the effect of papaverine; +++: effect equal to that of papaverine; ++++: effect higher than that of papaverine; conditions: intra-arterial, 30 mg/kg, anaesthetized dog, vs papaverine at same dose
Experimental: (3) The vasodilator activity was measured at the level of femoral artery on anaesthetized dog (technique of perfused paw). The tested substances were given intra-arterially at the rate of 30 mg/kg. Results are expressed with respect to papaverine tested at the same dose.
++: effect equal to half the effect of papaverine.
+++: effect equal to that of papaverine.
++++: effect higher than that of papaverine.

Structure (SMILES) | ANTISPASMODIC ACTIVITY ACHOL (dose causing complete spasm inhibition) [1] [μg per ml] | ANTISPASMODIC ACTIVITY HIST. (dose causing complete spasm inhibition) [2] [μg per ml] | LD50 [3] [mg/kg] | VASODILATOR ACTIVITY (femoral artery)
CC(CCCc1ccccc1)NC(C)C(O)c1ccc2c(c1)CCS2 (centres unmarked) [No 63] | 0.8 | 0.8 | 1850 | ++
CC(NCCOc1ccc2ccccc2c1)C(O)c1ccc2c(c1)CCCS2 (centres unmarked) [No 88] | 1.7 | 1.7 | > 4000 | +++
COc1ccc(OCCNC(C)C(O)c2ccc3c(c2)CC(C)S3)cc1 (centres unmarked) [No 66] | 3.3 | 1.7 |  | ++
CC1Cc2cc(C(O)C(C)NCCCN3CCCC3)ccc2O1 (centres unmarked) [No 62] | > 16.7 | > 16.7 | 885 | 0
CC(NC1CC1)C(O)c1ccc2c(c1)CCCS2 (centres unmarked) [No 51] | 16.7 | 8.3 |  | ++
COC(=O)c1ccc(OCCNC(C)C(O)c2ccc3c(c2)CCCS3)cc1 (centres unmarked) [No 114] | 3.3 | 0.8 | > 2000 | +++
CC(NCCOc1ccc(C(C)(C)C)cc1)C(O)c1ccc2c(c1)CCC2 (centres unmarked) [No 176] | 0.8 | 0.17 | > 4000 | +++
CC(NCCCCc1ccccc1)C(OC(=O)C(C)(C)C)c1ccc2c(c1)CCS2 (centres unmarked) [No 99] | 1.7 | 8.3 |  | 
CC(NCCCN1CCCC1)C(O)c1ccc2c(c1)CCCS2 (centres unmarked) [No 59] | 3.3 | 3.3 | 1120 | +++
CC(=O)Nc1ccc(OCCNC(C)C(O)c2ccc3c(c2)CCS3)cc1 (centres unmarked) [No 86] | 16.7 | 1.7 | 1420 | +++
CC(NCCOc1ccc2c(c1)CCC2)C(O)c1ccc2c(c1)CCCS2 (centres unmarked) [No 83] | 0.8 | 1.7 | > 4000 | +++
CC(NC12CC3CC(CC(C3)C1)C2)C(O)c1ccc2c(c1)CCCS2 (centres unmarked) [No 52] | 1.7 | 1.7 |  | +++
CC(C)NC(C)C(O)c1ccc2c(c1)CCCCS2 (centres unmarked) [No 38] | 8.3 | 3.3 | 240 | ++
CC1CSc2ccc(C(O)C(C)NCCCc3ccccc3)cc2C1 (centres unmarked) [No 48] | 1.7 | 0.8 | > 4000 | 
CC(C)NC(C)C(O)c1ccc2c(c1)CCS2 (centres unmarked) [No 33] | 16.7 | 16.7 | 355 | +++
Cc1ccc(OCCNC(C)C(O)c2ccc3c(c2)CC(C)S3)cc1 (centres unmarked) [No 79] | 0.8 | 1.7 |  | 
CCCCSCCCNC(C)C(O)c1ccc2c(c1)CCS2 (centres unmarked) [No 125] |  | 1.7 | 3400 | ++
CCCCCCCCNC(CC)C(O)c1ccc2c(c1)CCCS2 (centres unmarked) [No 128] |  |  | > 4000 | 
CC(CCCc1ccccc1)NC(C)C(O)c1ccc2c(c1)CCC2 (centres unmarked) [No 173] | 0.8 | 0.8 | 2600 | ++
CC(NCCOCc1ccccc1)C(O)c1ccc2c(c1)CCCS2 (centres unmarked) [No 46] | 3.3 | 8.3 | 4000 | +++
CCCCSCCCNC(C)C(O)c1ccc2c(c1)SCCO2 (centres unmarked) [No 124] |  | 1.7 |  | ++

Structure (SMILES) | ANTISPASMODIC ACTIVITY ACHOL (dose causing complete spasm inhibition) [1] [μg per ml] | ANTISPASMODIC ACTIVITY HIST. (dose causing complete spasm inhibition) [2] [μg per ml] | LD50 [3] [mg/kg] | VASODILATOR ACTIVITY (femoral artery)
CCCCCCCCNC(C)C(O)c1ccc2c(c1)CCCC2 (centres unmarked) [No 170] | 0.8 | 1.7 | ~2300 | +++
CC(NCCCCc1ccccc1)C(O)c1ccc2c(c1)CCS2 (centres unmarked) [No 7, 1-(2,3-dihydro-5-benzo[b]thienyl)-2-(4-phenylbutylamino)-1-propanol] |  |  | 860 | 
COC(=O)CCCCCCCCCCNC(C)C(O)c1ccc2c(c1)CCCS2 (centres unmarked) [No 73] | 1.7 | 3.3 | > 4000 | +++
CC(NCCCCc1ccccc1)C(O)c1ccc2c(c1)CCCCS2 (centres unmarked) [No 12, 1-(2,3,4,5-tetrahydrobenzo[b]thiepin-7-yl)-2-(4-phenylbutylamino)-1-propanol] |  |  | 5200 | 
CC(C(O)c1ccc2c(c1)CCCS2)N1CCC(c2ccccc2)CC1 (centres unmarked) [No 91] | 1.7 | 0.8 |  | +++
CCCCCCCCNC(C)C(O)c1ccc2c(c1)CC(C)CS2 (centres unmarked) [No 43] | 1.7 | 0.8 | 3300 | +++
CCCCCCCCNC(C)C(O)c1ccc2c(c1)CC(C)S2 (centres unmarked) [No 18] |  |  | 3350 | 
CC(NC1CCCCC1)C(O)c1ccc2c(c1)CCCS2 (centres unmarked) [No 41] | 8.3 | 8.3 |  | 
CC(NCCOc1ccc(NS(C)(=O)=O)cc1)C(O)c1ccc2c(c1)CCS2 (centres unmarked) [No 103] | 16.7 | 3.3 |  | 
CCCCCCCCNC(C)C(O)c1ccc2c(c1)SCCO2 (centres unmarked) [No 121] |  | 0.8 |  | +++
CCCCCCCCNC(CC)C(O)c1ccc2c(c1)CCS2 (centres unmarked) [No 119] |  | 0.3 | 1800 | ++++
CCCCCCCCNC(C)C(OC(=O)CCCCCCC)c1ccc2c(c1)CCCS2 (centres unmarked) [No 136] |  |  | > 4000 | 
CC(NCCOc1ccc(C(C)(C)C)cc1)C(O)c1ccc2c(c1)CCCS2 (centres unmarked) [No 107] | 0.8 | 0.8 | > 4000 | +++
CC(NCCCN1CCNC1=O)C(O)c1ccc2c(c1)CCCS2 (centres unmarked) [No 56] | > 16.7 | > 16.7 |  | ++
CCCCOCCOCCCNC(C)C(O)c1ccc2c(c1)CCCS2 (centres unmarked) [No 72] | 1.7 | 1.7 | 880 | ++
CCCCOCCCNC(C)C(O)c1ccc2c(c1)CCCS2 (centres unmarked) [No 50] | 1.7 | 1.7 | 900 | +++
CC(CCCc1ccccc1)NC(C)C(O)c1ccc2c(c1)CC(C)O2 (centres unmarked) [No 82] | 1.7 | 0.3 |  | ++
CC(NCCCCSc1ccccc1)C(O)c1ccc2c(c1)CCS2 (centres unmarked) [No 31] | 1.7 | 0.17 | > 4000 | 
CC(C(O)c1ccc2c(c1)CCC2)N1CCC(c2ccccc2)CC1 (centres unmarked) [No 174] |  | 0.8 | 2150 | +++
CC(=O)Nc1ccc(OCCNC(C)C(O)c2ccc3c(c2)CCCS3)cc1 (centres unmarked) [No 87] | 16.7 | 8.3 |  | +++
